In PubChem BioAssay (NCI):
“And” between values parts separate entries of the source, which are not always exact repeats. Equal entries are not always repeated.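 In this assay, cells in 96-well plates receive the compound at five concentrations for 48 hours. Endpoints are linearly interpolated between the surrounding concentrations. At the GI50, growth is halved. TGI marks complete inhibition of growth.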

How the values were obtained:
Assay in all cases: growth of human tumour cells (NCI), 48 h
[1] = system: NCI-H522 lung
[2] = system: EKVX NSCLC
[3] = system: DU-145 prostate
[4] = system: TK-10 renal
[5] = system: HS 578T breast
[6] = system: CAKI-1 renal
[7] = system: SK-MEL-28 melanoma
[8] = system: HOP-62 NSCLC
[9] = system: IGROV1 ovarian
[10] = system: UACC-257 melanoma

SMILES	GI50 [1] [µM]	TGI [1] [µM]	GI50 [2] [µM]	TGI [2] [µM]	GI50 [3] [µM]	TGI [3] [µM]	GI50 [4]	TGI [4]	GI50 [5] [µM]	TGI [5] [µM]	GI50 [6]	TGI [6] [µM]	GI50 [7]	TGI [7]	GI50 [8]	TGI [8]	GI50 [9]	TGI [9]	GI50 [10]	TGI [10] [µM]
CC1=Cc2cc3[n-]c(cc4nc(cc5[n-]c(cc1n2)c(C)c5CCC(=O)O)C(CCC(=O)O)=C4C)cc3C.[Cu+2]	8.84	30.4	> 66.4	> 100	23.5	85.1	> 1 µM and 17.6 µM	> 1 µM and 38.3 µM	38.7	> 100	> 1 µM and 23.2 µM	> 68.2	> 1 µM and 4.4 µM	> 1 µM and 12.9 µM	> 1 µM and 20.8 µM	> 1 µM and 59.1 µM	> 1 µM and 12.5 µM	> 1 µM and 35.9 µM	> 1 µM and 40.8 µM	> 85.4
Nc1c(C(=O)Nc2cccc3ccccc23)sc2nc3c(cc12)CCCCC3	0.724	4.7	1.35	> 50	1.73	> 50	43.4 µM	> 50 µM	0.35	> 50			4.32 µM	> 50 µM	2.63 µM	> 50 µM	1.9 µM	> 50 µM	17.1 µM	> 50
COc1cc2c3c(n(CCCn4ccnc4)c(=O)c2cc1OC)-c1ccccc1C3=O	< 0.01	0.0612	0.833	> 100	< 0.0209		0.923 µM	27.5 µM	11.6	> 100	< 0.01 µM	0.105	1.59 µM	> 100 µM	< 0.0162 µM	0.141 µM	< 0.01 µM	0.35 µM		0.199
O=C(/C=C/C12c3ccccc3C(c3ccccc31)C1C(=O)NC(=O)C12)c1ccco1 (stereo not drawn)	1.84	3.75	3.16	11	2.98	11.9	3.7 µM	10.9 µM	4.16	30.2	3.74 µM	14	2.37 µM	4.73 µM	2.7 µM	6.99 µM	3.24 µM	9.73 µM	4.4 µM	15.6
Fc1ccc(Nc2ccc3cc(OCCCN4CCOCC4)ccc3n2)cc1F	2.15	5.37	5.86	> 100	6.85	> 100			3.06	9.2	3.71 µM	25.6	1.87 µM	3.93 µM	4.54 µM	45.9 µM	10.9 µM	> 100 µM	2.77 µM	6.88
Cc1ccc(-c2nc3nc(-c4ccc(Cl)cc4)nc(N4CCCNCC4)c3o2)cc1	1.75	3.85	1.75	3.27	1.95	3.59	1.78 µM	3.33 µM	1.93	4.17	1.45 µM	2.88	1.73 µM	3.13 µM	1.76 µM	3.64 µM	1.65 µM	3.15 µM	1.91 µM	3.65
COc1cc(/C=C/C(=O)CC(=O)/C=C/c2ccc(OC(=O)CCNC34CC5CC(CC(C5)C3)C4)c(OC)c2)ccc1OC(=O)CCNC12CC3CC(CC(C3)C1)C2	4.27	16.1	4.41	12.9	1.4	3.13	7.09 µM	22.6 µM	2.85	9.17	2.51 µM	9.33	3.79 µM	17.2 µM	3.99 µM	16.6 µM	3.52 µM	8.08 µM	4.24 µM	19.4
O=C(c1cccs1)c1c(C(F)(F)F)n([O-])c2cc(C(F)(F)F)ccc2[n+]1=O	0.294	0.738	0.251	0.625	0.179	0.326	0.678 µM	1.85 µM	0.189	0.546	0.22 µM	0.628	0.694 µM	2.09 µM	0.174 µM	0.337 µM	0.29 µM	0.848 µM	0.662 µM	1.82
COc1ccc2c(c1)/C(=C/c1c(-c3ccc(C)cc3)nc3sc(C)cn13)C(=O)N2	13.5	> 100	9.62	> 100	4.75	> 100	7.93 µM	> 100 µM	19.8	> 100	35.3 µM	> 100	23.4 µM	> 100 µM	19.7 µM	> 100 µM	32.9 µM	> 100 µM	16.8 µM	57.1
Cc1c(N(C(=O)c2cc(-c3cc(Cl)ccc3C(=O)N3Cc4ccccc4C[C@H]3CN3CCOCC3)n(C)c2C)c2ccc(O)cc2)cc(C#N)n1C	20.4	> 100	48.4	> 100	32.5	> 100	12.8 µM	78 µM	19	75.3	6.35 µM	> 100	31.3 µM	> 100 µM	25.8 µM	> 100 µM	23.8 µM	> 100 µM	20.1 µM	> 100
Cc1cc(S(=O)(=O)/N=C(\N)n2nc(C)c(C)c2C)c(SCc2ccccc2)cc1Cl	> 100	> 100	5.38	> 100	> 100	> 100	> 100 µM	> 100 µM	> 100	> 100			> 100 µM	> 100 µM	> 100 µM	> 100 µM			63.8 µM	> 100
O=C(Nc1cccc(-c2nc3ccccc3[nH]2)c1)c1cccc(NC(=O)c2ccco2)c1	2.5	6.41			1.76	3.15	2.88 µM	6.66 µM	2.2	5.97	2.53 µM	7.21	1.75 µM	3.31 µM	2.06 µM	4.3 µM	5.34 µM	17 µM	2.3 µM	5.34
